US10617679B2, “Deuterated compounds and medical uses thereof” (JINGLUWEIDAI INFORMATION CONSULTING SERVICE (BEIJING) CO. …, priority 2016, dated 2020)

How the values were obtained:
heart rate in rats = experiment: Effects on heart rate in rats; type: in vivo, SD rats
Protocol: (§1) SD rats (male, weight 160-180 g) were fasted for 12 hours before administration but had free access to drinking water. The rats were randomly divided into groups. They were anesthetized with an intraperitoneal injection of 50-60 mg/kg dose of sodium pentobarbital. Each rat was fixed on the back on the surgical table. The skin was cut from the center of the neck, and an incision of about 2.5 cm was made. The subcutaneous tissue and the median muscle were separated; the trachea was fully exposed; and the endotracheal intubation was performed. The subcutaneous tissue was separated from front to back on the right side; the right common carotid artery, the vagus nerve and the sympathetic nerve were exposed; and the carotid artery cannulation was performed. Finally, the endotracheal tube and the carotid artery cannula were respectively connected to a respiration transducer and a blood pressure transducer, and then connected to a multifunctional physiological recorder. At 30 minutes after surgery, the rats were intragastrically administrated. Heart rate and blood pressure were measured at different time points after administration.

rat formalin model = experiment: Analgesic effects of intragastric administration in a rat formalin model; type: in vivo, SD rats; details: mean ± SD; for Reaction time for phase I: licking time 0-5 min after formalin; for Reaction time for Phase II: licking time 15-30 min after formalin
Protocol: SD rats (male, weight 160-180 g) were randomly divided into groups with 6 rats in each group. After the rats were intragastrically administered different doses separately, they were placed in PVC observation boxes for habituation. After 30 min, the rats were injected subcutaneously with 20 μL of 2.7% formalin solution into the plantar surface of the left hind paws, and quickly put back in the PVC observation boxes for observation. The length of time the rats spent licking the injected-formalin paws at the early response (0-5 min, phase I) and the late response (15-30 min, Phase II) was recorded, and the analgesic activities of the test compounds were evaluated according to the length of time the rats spent licking during the period of observation. The experimental data were expressed as mean±standard deviation. The shorter the licking time, the better the analgesic effect of the compound.

Wistar rats = experiment: Evaluation of subacute toxicity (14 days, intragastric); type: in vivo; details: 40 mg/kg intragastric once a day for 14 days; for ALT / AST: rat; for histopathological examination of liver / plasma ALT and AST versus control group: result in words
Protocol: Male Wistar rats were randomly divided into groups with 10 rats in each group and weighed. A certain concentration of a test sample was ground and suspended in a 0.5% sodium carboxymethyl cellulose solution. The sodium carboxymethyl cellulose suspension containing 40 mg/kg of the test compound and a blank sodium carboxymethyl cellulose suspension as a control were intragastrically administered, once a day for 14 consecutive days. After the last administration, the rats were fasted but had free access to drinking water for 12 hours, and then anesthetized. Their blood samples were obtained from the abdominal aortas. According to SOPB093 “Standard Operating Procedures for Serum Preparation” in National Beijing Center for Drug Safety Evaluation and Research, serum was prepared for the determination of blood biochemical and immunological indicators; according to SOPB032 “Preparation of vacuum tubes with EDTA anticoagulation”, EDTA anticoagulation was prepared for the general blood routine tests.

blood pressure in rats = experiment: Effects on blood pressure in rats; type: in vivo, SD rats
Protocol: as §1

[1] = test system: rat chronic sciatic nerve compression neuralgia model; experiment: Analgesic effects of intragastric administration in a rat chronic sciatic nerve compression neuralgia model; type: in vivo, SD rats; details: pain threshold 1 hour after administration
Protocol: SD rats (male, weight 160-180 g) were anesthetized using sodium pentobarbital (40 mg/kg), of which the sciatic nerves were separated in the middle segment of the right hind limbs. In the anterior segment of the sciatic nerve to be bifurcated, the sciatic nerve was separated from the surrounding tissue using a sterile glass hook. Four rings were loosely ligated with sterile chrome gut (No. 4, 0.15 mm in diameter) by an interval of 1 to 2 mm. Topically sprinkled with penicillin powder. The muscle tissue and skin were sutured. The rats were placed in a cage with cork dust. In the sham surgery group, the sciatic nerve was only exposed, and the other treatments were the same as described above. The rats after surgery were placed in a metal cage. […] The weight of the filament was recorded and set to be the threshold (in g). Meanwhile, the number of foot-lifting response to the 10 stimulations of the fiber filaments of different weights was recorded, and the highest threshold was set at 26 g.
5-6 rats in each group were intragastrically administered and the pain thresholds were measured 1 hour after administration. Statistical analysis of the thresholds was performed using non-parametric Wilcoxon 2-Sample Test and Kruskal-Wallis Test, and the data was analyzed with SASS data processing software. Analgesic percent (%)=(pain threshold after drug treatment−pain threshold before drug treatment)/(maximal analgesia threshold−pain threshold before drug treatment)[…].

[2] = test system: oxycodone-induced place preference in rats; experiment: Inhibition of oxycodone-induced place preference in rats; type: in vivo, SD rats; details: day 10, within 15 minutes
Protocol: SD rats (male, weight 160-180 g) were placed in conditioned place preference (CPP) training boxes, where the partition door between the boxes was open. Time the rats spent in each of the boxes was recorded within 15 min in order to determine the natural tendency of the rats. The rats were then randomly divided into groups with 10 rats in each group according to the amount of time spent in the white box. The white box was a drug box, and the black box was a box with the absence of the drug. After intragastric administration with a test compound for 40 minutes, the rats were injected subcutaneously with oxycodone (2.5 mg/kg, s.c.) or saline, and immediately placed in the white box or the black box to be trained for 45 minutes, once a day for 9 consecutive days. On the 10th day, the rats were placed in the training boxes with the partition door open. The time the rats spent in the white box was recorded within 15 minutes to evaluate effects on place preference in the rats.

[3] = 20 mg/kg intragastric, time point 0
[4] = 20 mg/kg intragastric, time point 30
[5] = 20 mg/kg intragastric, time point 60
[6] = 20 mg/kg intragastric, time point 90
[7] = 20 mg/kg intragastric, time point 120
[8] = 20 mg/kg intragastric, time point 180
[9] = 40 mg/kg intragastric, time point 0
[10] = 40 mg/kg intragastric, time point 30
[11] = 40 mg/kg intragastric, time point 60
[12] = 40 mg/kg intragastric, time point 90
[13] = 40 mg/kg intragastric, time point 120
[14] = 40 mg/kg intragastric, time point 180
[15] = test dose 10 mg/kg intragastric + oxycodone 2.5 mg/kg s.c.
[16] = test dose 20 mg/kg intragastric + oxycodone 2.5 mg/kg s.c.

Compound | Heart rate (heart rate in rats; [3]) [BTM] | Heart rate (heart rate in rats; [4]) [BTM] | Heart rate (heart rate in rats; [5]) [BTM] | Heart rate (heart rate in rats; [6]) [BTM] | Heart rate (heart rate in rats; [7]) [BTM] | Heart rate (heart rate in rats; [8]) [BTM] | Heart rate (heart rate in rats; [9]) [BTM] | Heart rate (heart rate in rats; [10]) [BTM] | Heart rate (heart rate in rats; [11]) [BTM] | Heart rate (heart rate in rats; [12]) [BTM] | Heart rate (heart rate in rats; [13]) [BTM] | Heart rate (heart rate in rats; [14]) [BTM] | Reaction time for phase I (rat formalin model; 20 mg/kg intragastric) [s] | Reaction time for Phase II (rat formalin model; 20 mg/kg intragastric) [s] | Reaction time for phase I (rat formalin model; 40 mg/kg intragastric) [s] | Reaction time for Phase II (rat formalin model; 40 mg/kg intragastric) [s] | ALT (Wistar rats) [U/L] | AST (Wistar rats) [U/L] | histopathological examination of liver (Wistar rats) | plasma ALT and AST versus control group (Wistar rats) | further results
COc1cc2c(cc1OC)[C@@H]1Cc3ccc(OC)c(OC)c3CN1CC2 [THP, L-tetrahydropalmatine, reference compound] | 399.3 ± 32.6 | 377.1 ± 52.3 | 387.3 ± 50.5 | 399.8 ± 60.7 | 408.8 ± 55.9 | 429.8 ± 25.5 | 391.8 ± 32.9 | 372.1 ± 46.5 | 329.0 ± 63.2 | 340.0 ± 71.4 | 372.0 ± 64.6 | 400.0 ± 30.5 | 86.8 ± 37.3 | 185.2 ± 39.7 | 40.6 ± 28.3 | 97.5 ± 33.6 | 160.0 ± 70.6 | 216.8 ± 91.6 | vacuolar degeneration of hepatocytes | significant increase | Blood pressure (blood pressure in rats; [3]): 111.5 ± 11.5 mmHg; Blood pressure (blood pressure in rats; [4]): 109.4 ± 20.6 mmHg; Blood pressure (blood pressure in rats; [5]): 105.00 ± 28.21 mmHg; Blood pressure (blood pressure in rats; [6]): 105.1 ± 20.0 mmHg; Blood pressure (blood pressure in rats; [7]): 112.7 ± 19.3 mmHg; Blood pressure (blood pressure in rats; [8]): 113.3 ± 18.3 mmHg; Blood pressure (blood pressure in rats; [9]): 114.2 ± 14.6 mmHg; Blood pressure (blood pressure in rats; [10]): 98.0 ± 30.1 mmHg; Blood pressure (blood pressure in rats; [11]): 81.63 ± 28.8 mmHg; Blood pressure (blood pressure in rats; [12]): 79.00 ± 28.2 mmHg; Blood pressure (blood pressure in rats; [13]): 91.6 ± 24.7 mmHg; Blood pressure (blood pressure in rats; [14]): 97.3 ± 14.5 mmHg; Analgesic percent ([1]; 20 mg/kg intragastric): 27.41%; Analgesic percent ([1]; 40 mg/kg intragastric): 68.36%; Time spent in the drug box (Mean ± S) [2, 15]: 253.23 ± 77.14 s; Time spent in the drug box (Mean ± S) [2, 16]: 157.04 ± 60.6 s
[2H]C([2H])([2H])Oc1cc2c(cc1OC)CCN1Cc3c(ccc(OC([2H])([2H])[2H])c3OC)C[C@@H]21 [Formula I6, (13a S)-3,9-dimethoxy-2,10-di-[(trideutero)-methoxy]-6,8,13,13a-tetrahydro-5H-isoquinolino[2,1-b]isoquinoline] | 407.1 ± 43.4 | 400.2 ± 29.4 | 401.0 ± 28.47 | 403.0 ± 30.2 | 396.7 ± 36.3 | 402.5 ± 28.8 | 414.1 ± 37.6 | 375.8 ± 29.3 | 362.8 ± 20.7 | 367.2 ± 27.0 | 393.5 ± 34.6 | 380.8 ± 30.5 | 41.9 ± 9.2 | 66.7 ± 8.7 | 38.6 ± 9.4 | 40.3 ± 9.0 | 165.3 ± 38.0 | 251.8 ± 32.0 | vacuolar degeneration of hepatocytes | significant increase | Blood pressure (blood pressure in rats; [3]): 115.6 ± 21.9 mmHg; Blood pressure (blood pressure in rats; [4]): 108.5 ± 10.75 mmHg; Blood pressure (blood pressure in rats; [5]): 102.0 ± 11.4 mmHg; Blood pressure (blood pressure in rats; [6]): 104.7 ± 10.70 mmHg; Blood pressure (blood pressure in rats; [7]): 110.5 ± 6.8 mmHg; Blood pressure (blood pressure in rats; [8]): 106.5 ± 13.7 mmHg; Blood pressure (blood pressure in rats; [9]): 111.0 ± 21.4 mmHg; Blood pressure (blood pressure in rats; [10]): 95.4 ± 14.5 mmHg; Blood pressure (blood pressure in rats; [11]): 83.5 ± 10.30 mmHg; Blood pressure (blood pressure in rats; [12]): 85.2 ± 8.0 mmHg; Blood pressure (blood pressure in rats; [13]): 110.00 ± 11.6 mmHg; Blood pressure (blood pressure in rats; [14]): 109.5 ± 14.1 mmHg; Analgesic percent ([1]; 20 mg/kg intragastric): 63.80%; Analgesic percent ([1]; 40 mg/kg intragastric): 69.12%; Time spent in the drug box (Mean ± S) [2, 15]: 183.27 ± 33.97 s; Time spent in the drug box (Mean ± S) [2, 16]: 129.35 ± 23.66 s
